Measured values reported in patent US6306822A, “Phosphopeptides and methods of treating bone diseases” (Big Bear Bio, Inc., priority 1998, dated 2001).

Assays:
[1] = system: ovariectomized rats; assay: Ovariectomized rat osteoporosis model, femur bone mineral content by DEXA; assay type: in vivo, Harlan-Sprague-Dawley rats; conditions: Day 45, femur, OVX rats; compared with sham (positive) and OVX saline (negative) controls; doses and routes per b114 table
Procedure: Ovariectomized rats were chosen for the efficacy study of O-phosphoserine containing polypeptides. Ovaries were surgically resected from young female Harlan-Sprague-Dawley rats. Sham-operated rats were also prepared to use as positive controls.
After 7 days acclimation, the ovariectomized (OVX) rats were randomly divided into different treatment groups (6 animals per each group). Six sham-operated rats were assigned to the positive control group. Each group was fed a normal rat diet throughout the test period but received different treatments as summarized below: […]
The test samples four groups 3, 4, 5, and 6 were dissolved in saline and administered at once. Total volume of the sample solution was 1 ml and 0.1 ml per animal for oral and parenteral administration, respectively. Oral preparations were administered once a day and injection (s.c.) was every three days.
The group receiving the highest amount of oral Pse (group 3) was used to compare the efficacy of monomeric Pse versus Pse contained in a polypeptide.
On Days 0, 45, and 90 of the treatment, the femurs of most of the participating animals were subject to DEXA (dual energy X-ray absorptiometry) measurement, a typical method by which to study the status of bone growth. The animals were anesthetized and fixed on the bed when receiving the DEXA scan. […]

[2] = system: bone formation and resorption; assay: In vitro or ex vivo bone formation and resorption assay systems; conditions: typical in vitro or ex vivo bone formation and resorption assay systems
Description: The mechanism of action of these polypeptides is not completely understood. […] These peptides may increase to bone formation by attracting calcium which is solubilized in the biological fluids (serum, bone marrow, and so on, etc.). In addition, these peptides may have an effect on the formation or cross-linking of bone matrix proteins, by forming hydroxyapatite on or between such matrix proteins.

Question: With `N[C@@H](COP(=O)(O)O)C(=O)O` [Pse, O-phosphoserine] as the compound, how does the “bone mineral content (BMC) measured by DEXA” value [1] read?
Answer: close to that of the negative control

Question: What about the “biological effect on bone” value [2] of the same compound?
Answer: neither the O-phosphoserine-containingpolypeptides nor O-phosphoserine monomer had any biological effect
